Values belong to the substance of their own block, whether it stands above or below them.
Experiments:
[1] = target: T1, recombinant human (rh) IGFBP-1 (Homo sapiens, UniProt P08833); experiment: ^125I-IGF-I competitive binding plate assay, IGFBP-1; details: displacement of ^125I-IGF-I, FIG. 6
T1 sequence (P08833 26-259): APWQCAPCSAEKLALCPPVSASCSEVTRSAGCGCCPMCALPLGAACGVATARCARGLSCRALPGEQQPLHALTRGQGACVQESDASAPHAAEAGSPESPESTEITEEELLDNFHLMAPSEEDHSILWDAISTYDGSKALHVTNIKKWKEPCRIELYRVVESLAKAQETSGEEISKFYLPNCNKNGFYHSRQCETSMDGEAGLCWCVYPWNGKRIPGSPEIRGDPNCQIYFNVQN
Procedure: (§1) The mutant (Leu^24,Ala^31)hIGF-I was also tested for its ability to displace radio-labeled rhIGF-I off the IGFBPs in a competitive binding assay. This assay involves coating recombinant human (rh) IGFBP-1 or rhIGFBP-3 (160 ng/ml) onto 96-well plates overnight, blocking the plates for one hour with 0.5% BSA, adding rhIGF-I (250-0.08 ng/ml) or (Leu^24,Ala^31)hIGF-I for 1 hour, then adding 20,000 cpm of ^125I-IGF-I and incubating for 2 hours before washing and counting.
(§2) As an additional assay of peptide activity, several peptides were tested in an assay using ^125I-labeled IGF-I to measure inhibition of IGFBP binding, as described in Example 1 (Assay 3). Serial dilutions of peptide were added to an IGFBP-1 or an IGFBP-3 plate. Thereafter, ^125I-labeled IGF-I was added and the plates were incubated for 2 hours. The plates were then washed and counted to determine the amount of bound IGF-I.

IGFBP-3 = IGFBP-3 (Homo sapiens, UniProt P17936); experiment: ^125I-IGF-I competitive binding plate assay, IGFBP-3; details: displacement of ^125I-IGF-I, FIG. 7
Procedure: as §1, §2

[2] = test system: Zucker Diabetic Fatty (ZDF) rats; experiment: Long-term administration to diabetic rats incl. glucose tolerance test; assay type: in vivo, rat; details: for change in blood glucose two hours following the glucose challenge: glucose tolerance test day 14, 2 g/kg ip, 150 μg tid
Procedure: Obese male Zucker Diabetic Fatty (ZDF) rats (6-7 weeks of age, 225-250 g, Genetic Models Inc., Indianapolis, Ind. 46268) were group housed (3/cage) in a room controlled for temperature and lighting and fed the pelleted rat diet specified by the breeders (Purina 5008, 6% fat breeder chow) and tap water ad libitum. After three days acclimation, a blood sample was obtained from the tail vein for measurement of blood glucose and insulin, which was measured by rat-specific RIA (Linco Research Inc., St. Charles, Mo.). Animals were randomized into four treatment groups and into cages to give groups balance so as to have equivalent initial blood glucose levels, insulin levels, and body weights.
The experiment consisted of four groups of rats with seven rats per group.
1.0 The mutant (Leu^24,Ala^31)hIGF-I was prepared at two concentrations (1.5 mg/ml, and 0.5 mg/ml) so that with three injections per day two doses were given (a total of 450 μg/d or 150 μg/d). rhIGF-I was prepared at one concentration (1.5 mg/ml) so that with three injections per day one dose was given (450 μg/d). A fourth group of rats were given the excipient. The injections, each of 100 μl volume, were given at 7am, 1pm, and 7pm for 15 days without disrupting the controlled diurnal lighting of the vivarium room. Body weights were measured each day at 1 pm.
Blood samples were collected from non-fasted rats on the evening before the first day of dosing and on days 3, 7, and 10. Blood samples (400 μl) on days 3, 7, and 10 were taken by bleeding from a tail vein one hour after the mid-day injection. The blood was allowed to clot, and serum was separated and stored before analysis.
A glucose tolerance test was performed on day 14 of the study. Rats received their regular morning injection and then their food was withdrawn. After a 3-5-hour fast a blood sample (400 μl) was taken via the tail vein. Rats then received 2 g/kg dextrose(50%) by intraperitoneal (ip) injection. A blood sample (200 μl) was taken via tail vein at 10, 60, and 120 minutes after dextrose administration. Blood was allowed to clot and serum was separated and stored for measurement of glucose and insulin concentrations. After the glucose tolerance test was completed, animals were re-fed.
On day 15, one hour after the morning injection, rats were asphyxiated with carbon dioxide and bled by cardiac puncture. Blood was allowed to clot and serum was separated and frozen. Spleen, thymus, heart, liver, kidney, and perirenal fat were removed, blotted dry, and immediately weighed.
Statistical comparisons for each time point were made by an analysis of variance with a Duncan's Multiple Range test. A p value of <0.05 was considered as being statistically significant. All data are represented as the mean +SEM, with seven animals per treatment group.

[3] = test system: endogenous IGFBPs present in human serum; experiment: Displacement of ^125I-IGF-I from IGFBPs in human serum (FPLC-SEC); assay type: binding; details: normal human serum, IGF mutant 40 μg/ml, mean ± SD, n = 3
Procedure: To determine if the IGF mutant could displace IGF-I from endogenous IGFBPs present in human serum, the following experiment was performed. Radiolabeled rhIGF-I (^125-IGF-I) was incubated with normal human serum samples at a concentration of 33 ng/ml for 16 hr at 4° C. to allow for the formation of […] complexes. […] The samples (n=3) were then analyzed by FPLC size-exclusion chromatography (FPLC-SEC) to determine the relative size and amounts of the ^125I-IGF-I:IGFBP complexes.
Data are expressed as cpm per fraction (n=1).
This Example tests an IGFBP-3-specific peptide, BP15, for its ability to block the binding of ^125I-IGF-I in human serum. Human serum was incubated with ^125I-IGF-I±the peptide and the amount of tracer bound to IGFBPs via size-exclusion chromatography was measured.

[4] = target: T2, Type 1 IGF receptor (derived from placental membranes) (Homo sapiens, UniProt P08069); details: Type 1 IGF receptor from placental membranes; Bayne et al.; read-out: half maximal inhibition of ligand binding; cited from earlier work
T2 construct: Type 1 IGF receptor (derived from placental membranes); host or cells: placental membranes

L7 murine fibroblasts = details: Bayne et al.; cited from earlier work
dwarf rats = experiment: Long-term administration to GH-deficient dwarf (dw/dw) rats; assay type: in vivo, rat; details: 150 μg of IGF-I agonist as printed
[5] = Day 10, 150 μg three times a day
[6] = day 13, 150 μg three times a day SC
[7] = glucose tolerance test day 14, 150 μg tid

Sequence of IGFBP-3 (P17936 28-291): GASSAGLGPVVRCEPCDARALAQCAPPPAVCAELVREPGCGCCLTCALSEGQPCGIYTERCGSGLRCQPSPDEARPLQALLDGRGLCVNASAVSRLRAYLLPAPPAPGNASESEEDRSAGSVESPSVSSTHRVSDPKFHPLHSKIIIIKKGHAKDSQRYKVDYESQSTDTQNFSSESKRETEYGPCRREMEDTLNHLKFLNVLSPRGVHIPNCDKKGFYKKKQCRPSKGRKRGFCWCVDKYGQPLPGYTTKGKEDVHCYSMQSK
T2 sequence (P08069 31-736 limits assumed): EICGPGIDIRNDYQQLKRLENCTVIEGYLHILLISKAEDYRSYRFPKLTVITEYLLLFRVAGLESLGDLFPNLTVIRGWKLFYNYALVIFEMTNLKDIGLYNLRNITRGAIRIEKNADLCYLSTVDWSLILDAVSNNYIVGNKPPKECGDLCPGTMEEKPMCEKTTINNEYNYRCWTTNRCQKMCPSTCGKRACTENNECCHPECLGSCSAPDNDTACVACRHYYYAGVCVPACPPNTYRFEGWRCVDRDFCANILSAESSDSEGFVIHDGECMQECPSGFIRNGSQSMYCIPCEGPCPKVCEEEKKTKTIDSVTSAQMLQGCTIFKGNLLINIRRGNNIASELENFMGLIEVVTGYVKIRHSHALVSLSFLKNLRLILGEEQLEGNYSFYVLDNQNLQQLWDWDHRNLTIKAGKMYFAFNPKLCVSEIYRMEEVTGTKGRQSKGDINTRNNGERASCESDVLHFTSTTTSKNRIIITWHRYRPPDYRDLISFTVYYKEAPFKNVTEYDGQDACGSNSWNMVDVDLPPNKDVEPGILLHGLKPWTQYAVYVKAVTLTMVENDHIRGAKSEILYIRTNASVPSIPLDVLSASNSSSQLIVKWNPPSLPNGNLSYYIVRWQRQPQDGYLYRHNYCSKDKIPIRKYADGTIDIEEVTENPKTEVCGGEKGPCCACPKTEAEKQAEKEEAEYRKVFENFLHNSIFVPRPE
T2 sequence (P08069 741-1367 partner limits assumed): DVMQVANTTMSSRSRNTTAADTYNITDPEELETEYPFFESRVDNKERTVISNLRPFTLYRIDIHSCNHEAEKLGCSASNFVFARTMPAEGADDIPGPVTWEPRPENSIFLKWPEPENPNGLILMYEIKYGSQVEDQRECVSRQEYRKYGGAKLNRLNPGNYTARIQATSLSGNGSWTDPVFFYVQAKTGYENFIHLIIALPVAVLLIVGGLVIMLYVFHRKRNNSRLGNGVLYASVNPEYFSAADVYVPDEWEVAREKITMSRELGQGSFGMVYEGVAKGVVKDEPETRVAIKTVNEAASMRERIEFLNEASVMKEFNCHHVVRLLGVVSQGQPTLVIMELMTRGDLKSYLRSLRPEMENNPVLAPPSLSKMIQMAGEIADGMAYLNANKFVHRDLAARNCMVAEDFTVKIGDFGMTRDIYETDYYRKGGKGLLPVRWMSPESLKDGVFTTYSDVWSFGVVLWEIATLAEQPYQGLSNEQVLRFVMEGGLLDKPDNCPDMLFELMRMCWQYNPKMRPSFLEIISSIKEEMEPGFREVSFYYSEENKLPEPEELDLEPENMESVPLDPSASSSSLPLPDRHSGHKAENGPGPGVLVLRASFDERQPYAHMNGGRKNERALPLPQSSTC

Free (˜7 kDa) ^125I-IGF-I, percent of total radioactivity ([3]; 0 hr): 9.3 ± 2.3% | ^125I-IGF-I in ˜44 kDa range, percent of total radioactivity ([3]; 0 hr): 60.5 ± 0.8% | ^125I-IGF-I in ˜150 kDa range, percent of total radioactivity ([3]; 0 hr): 30.3 ± 1.4% | Free (˜7 kDa) ^125I-IGF-I, percent of total radioactivity ([3]; 0.5 hr): 38.2 ± 3.7% | ^125I-IGF-I in ˜44 kDa range, percent of total radioactivity ([3]; 0.5 hr): 37.3 ± 2.9% | ^125I-IGF-I in ˜150 kDa range, percent of total radioactivity ([3]; 0.5 hr): 24.4 ± 0.8% | Free (˜7 kDa) ^125I-IGF-I, percent of total radioactivity ([3]; 3 hr): 61.9 ± 2.6% | ^125I-IGF-I in ˜44 kDa range, percent of total radioactivity ([3]; 3 hr): 27.8 ± 1.5% | ^125I-IGF-I in ˜150 kDa range, percent of total radioactivity ([3]; 3 hr): 10.3 ± 1.1% | Free (˜7 kDa) ^125I-IGF-I, percent of total radioactivity ([3]; 24 hr): 81.9 ± 0.5% | ^125I-IGF-I in ˜44 kDa range, percent of total radioactivity ([3]; 24 hr): 12.6 ± 0.4% | ^125I-IGF-I in ˜150 kDa range, percent of total radioactivity ([3]; 24 hr): 5.5 ± 0.1%
Substance: (Leu^24,Ala^31)hIGF-I
binding affinity to recombinant IGFBP-1 [1]: affinity only several fold different from that of wild-type hIGF-I | binding affinity to recombinant IGFBP-3 (IGFBP-3): affinity only several fold different from that of wild-type hIGF-I | rise in blood glucose, percentage change from basal ([2]; Day 10, 50 μg three times a day): 84±20% | rise in blood glucose, percentage change from basal [2, 5]: 74±22% | body weight gain ([2]; day 13, 50 μg three times a day SC): 100 ± 2.1 g | body weight gain [2, 6]: 105.1 ± 2.3 g | insulin in response to the glucose challenge ([2]; glucose tolerance test day 14, 50 μg tid): 10.2 ± 0.7 ng/mL | insulin in response to the glucose challenge [2, 7]: 10.6 ± 0.6 ng/mL | change in blood glucose two hours following the glucose challenge [2]: 59 ± 11 mg/dL | IC50 [4]: 2000 nM | reduction in activity, ^3H thymidine incorporation (L7 murine fibroblasts): more than 200 fold | total IGF-I (rat and human) in blood (dwarf rats): rise in total IGF-I

Substance: IGF-I: native-sequence recombinant human insulin-like growth factor-I (Genentech)
rise in blood glucose, percentage change from basal [2, 5]: 25±10% | body weight gain [2, 6]: 114.5 ± 1.6 g | insulin in response to the glucose challenge [2, 7]: 12.2 ± 0.7 ng/mL | change in blood glucose two hours following the glucose challenge [2]: 39 ± 12 mg/dL

— patent US6632794B1, “Insulin-like growth factor agonist molecules” (Genentech, Inc., priority 1997, dated 2003)
